We go through one compound from patent US6069232A, “Polyfluoroalkyl tryptophan tripeptide thrombin inhibitors” (Hoechst Marion Roussel, Inc., priority 1996, dated 2000).

One assay deals with aPTT in rat plasma. Put plainly: In vivo measurement of aPTT in rat plasma after injection. As to conditions: n = 2. An excerpt:
Activated partial thromboplastin time (aPTT) measurements were made in rat plasma at various times after injecting the animals with TFA·HNMe-D-Phe-L-Pro-D,L-Trp--CF2 CF3. Male Sprague-Dawley rats (200-450 g) purchased from Harlan Sprague Dawley, Inc., (Indianapolis, Ind. 46229) are used in these studies. […]

The target of another assay is T1, Thrombin (Homo sapiens, UniProt P00734).
T1 construct: Thrombin is obtained from human plasma; purchased Sigma Chemical Co; host or cells: human plasma
As to the kind of experiment: Thrombin inhibition, spectrophotometric assay (p-nitroaniline liberation). Type of assay: biochemical. The note with it: thrombin from human plasma; substrate Sarcosyl-Proline-Arginine-p-nitroanilide; 0.1M Tris pH 7.4; 30° C. On the procedure:
Chem., 329, p. 278 (1962), in which the liberation of p-nitroaniline is determined by measuring the increase in absorbance at 405 nm (ε=10800M^-1 cm^-1). Thrombin is obtained from human plasma, available from Sigma Chemical Co. wherein the activity is expressed in NIH units. One vial contains 290 units (specific activity=3000 units per mg of protein) as a lyophilized powder which is reconstituted with 1 mL of water. The substrate is the chromophoric peptide, Sarcosyl-Proline-Arginine-p-nitroanilide (Km =0.9 mM), the buffer is 0.1M Tris, pH 7.4 (final volume 1 mL) and the assay is carried out at a temperature of about 30° C. with 0.029 NIH units of enzyme required per assay. Kinetic characterization of immediate inhibitors is by means of the Dixon plot, whereas the characterization of slow- and/or tight-binding inhibitors uses data analysis techniques reviewed by Williams and Morrison. Kinetic characterization of time dependent inhibitors is by means of a Kitz & Wilson plot, Kitz R. and Wilson I. B., J. Biol. Chem., 237, 3245-3249 (1962).

A further assay has as its system clotting time (aPTT). As to the kind of experiment: Coagulation assay: activated partial thromboplastin time (aPTT), concentration doubling the clotting time. Set-up: species or system rat. As to conditions: calculated by simple linear regression. On the procedure:
Male Sprague-Dawley rats (200-450 gm) purchased from Harlan Sprague Dawley, Inc., (Indianapolis, Ind. 46229) were used in these studies.
Activated partial thromboplastin time (aPTT) determinations are carried out using the reagents and methods of Dade Diagnostics, Inc. (Aguada, Puerto Rico 00602). All clotting times were measured semiautomatically using a MLA-Electra 750, MLA, Inc. (Pleasantville, N.Y. 10570). The concentration required for doubling the clotting time (ID2) was calculated using simple linear regression.

A further assay addresses T2, Trypsin (Sus scrofa, UniProt P00761).
T2 construct: Trypsin is obtained from porcine pancreas; purchased Sigma Chemical Co; host or cells: porcine pancreas
As to the kind of experiment: Trypsin inhibition, spectrophotometric assay (p-nitroaniline liberation). Type of assay: biochemical. The note with it: trypsin from porcine pancreas; substrate Benzoyl-Arginine-p-nitroanilide; 0.05M Tris, 0.05M CaCl2, pH 7.8; 30° C. Here is the method: Chem., 329, p. 278 (1962), immediately described above. Trypsin is obtained from porcine pancreas, available from Sigma Chemical Co. wherein the activity is expressed in Sigma units. The specific activity of the trypsin source is 15900 Sigma units per mg of protein where one unit is defined as the amount of enzyme that gives an increase in absorbance at 253 nm of 0.001 per min as the result of the hydrolysis of Benzoyl-Arginine-Ethylester, at pH 7.6 and 25° C. The substrate is the peptide Benzoyl-Arginine-p-nitroanilide (KM =[…]), the buffer is 0.05M Tris, 0.05M CaCl2, pH 7.8 (final volume 1 mL) and the assay is carried out at a temperature of 30° C. with 8 Sigma units of enzyme required per assay. Kinetic characterization of immediate inhibitors is by means of the Dixon plot, whereas the characterization of slow- and/or tight-binding inhibitors uses data analysis techniques reviewed by Williams and Morrison. Kinetic characterization of time dependent inhibitors is by means of a Kitz & Wilson plot.

T2 sequence (P00761 9-231): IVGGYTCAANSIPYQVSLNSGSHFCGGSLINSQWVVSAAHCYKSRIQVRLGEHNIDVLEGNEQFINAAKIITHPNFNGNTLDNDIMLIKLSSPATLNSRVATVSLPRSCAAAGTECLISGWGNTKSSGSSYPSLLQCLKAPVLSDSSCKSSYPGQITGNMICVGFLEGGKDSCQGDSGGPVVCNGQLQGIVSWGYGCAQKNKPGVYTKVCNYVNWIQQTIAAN

A word on the Ki: it is a dissociation constant, usually derived from enzyme kinetics or from competition with a known ligand. `CN[C@H](Cc1ccccc1)C(=O)N1CCC[C@H]1C(=O)NC(Cc1c[nH]c2ccccc12)C(=O)C(F)(F)C(F)(F)F.O=C(O)C(F)(F)F` (stereo partly drawn) [TFA.HNMe-D-Phe-L-Pro-D,L-Trp-CF2 CF3, L-Prolinamide, N-methyl-D-phenylalanyl-N-[3,3,4,4,4-pentafluoro-1-(1H-indol-3-ylmethyl)-2-oxobutyl]-, mono(trifluoroacetate)]: the aPTT with aPTT in rat plasma (5 mg/kg i.v., 0 min. after dosing) turned out to be 21.2 s; with aPTT in rat plasma (5 mg/kg i.v., 5 min. after dosing) it was 19.0 s; with aPTT in rat plasma (5 mg/kg i.v., 15 min. after dosing), 22.7 s; with aPTT in rat plasma (5 mg/kg i.v., 30 min. after dosing), 18.6 s; in the assay on aPTT in rat plasma (5 mg/kg i.v., 60 min. after dosing), 17.6 s; in the assay with aPTT in rat plasma (10 mg/kg i.v., 0 min. after dosing) it was 18.8 s. For the same compound, the aPTT with aPTT in rat plasma (10 mg/kg i.v., 5 min. after dosing) worked out at 17.4 s; with aPTT in rat plasma (10 mg/kg i.v., 15 min. after dosing), 18.0 s; in the assay on aPTT in rat plasma (10 mg/kg i.v., 30 min. after dosing) it was 15.7 s; in the assay with aPTT in rat plasma (10 mg/kg i.v., 60 min. after dosing), 12.6 s; with aPTT in rat plasma (30 mg/kg i.p., 0 min. after dosing), 19.2 s; in the assay with aPTT in rat plasma (30 mg/kg i.p., 5 min. after dosing) it was 20.8 s. The aPTT in the assay on aPTT in rat plasma (30 mg/kg i.p., 15 min. after dosing) came out at 19.2 s; in the assay on aPTT in rat plasma (30 mg/kg i.p., 30 min. after dosing) it was 19.4 s; in the assay on aPTT in rat plasma (30 mg/kg i.p., 60 min. after dosing), 18.7 s. Further, the inhibition constant Ki on Thrombin was 0.45 µM; on Trypsin, about 100 µM. Also, the “ID2 (concentration required for doubling the clotting time)” value in the assay on clotting time (aPTT) was 44.9 µM.
